The record followed here is ChEMBL document CHEMBL1147343, “Isolation and identification of an antifungal naphthopyran derivative from Rhinacanthus nasutus” (1993).

This assay concerns Pyricularia oryzae. Nature of the assay: Antifungal activity against Pyricularia oryzae assessed as inhibition of spore germination. It is filed as functional. As to conditions: read-out: ED50 (the source's name).

Structures are written as SMILES. Values after ≈ are worked out from the molar mass of the structure shown.

For the compound `CC1(C)COC2=C(C1)C(=O)c1ccccc1C2=O`, the EC50 came to 0.4 µg/mL (≈ 1.65 µM).
